Results reported in patent US7235548B2, “Compounds and their use as positive AMPA receptor modulators” (NeuroSearch A/S, priority 1998, dated 2007).
One block for each molecule: values may come before it.

Tests used:
[1] = system: AMPA receptor; assay: Voltage clamp (whole cell patch clamp), current induced by AMPA in cultured mouse neocortical neurons; format: cell-based; conditions: for reversibility of the potentiation: after wash out of the compound; for potentiation of the current induced by application of 30 μM AMPA: holding voltage −60 mV
Protocol: Experiments were performed in voltage clamp using conventional whole cell patch clamp methods (Hamill et al., 1981), essentially as described previously (Mathiesen et al., 1998). The following salt solutions were used (mM): NaCl (140), KCl (4), CaCl2 (2), MgCl2 (1), Sucrose (30), Tetrodotoxin (0.0003), Bicuculline Methiodide (0.005) and HEPES (10, pH 7.4). Intracellular solution (mM): CsCl (120), CsF (20), MgCl2 (2), EGTA (10), HEPES (10, pH=7.2).
Mouse neocortical neurons were cultured essentially as described by Drejer et al. (1987). Briefly, the forebrains from embryonic (E17) NMRI mice were removed under sterile conditions. The tissue was chopped in 0.4 mm cubes and the triturated with trypsin (12.5 μg/ml) and DNAse (2.5 μg/ml), 15 min, 37° C. The cells were suspended at a concentration of 1×10^6 cells/ml in a slightly modified DMEM which contained horse serum (10% (v/v)), penicillin (333 U/ml), paraaminobenzoic acid (1 mg/ml), L-glutamine (0.5 mM), insulin (0.08 U/ml) and KCl (23.8 mM). The cell suspension was subsequently inoculated into poly-L-lysine coated 35 mm Petri dishes (2 ml/dish). Glass coverslips (3.5 mm) were placed in the dishes before coating. After 24 hr in culture, the medium was replaced by freshly made medium containing 1% N2 supplement instead of serum.
The cells were kept in culture for 7–14 days at 37° C. (5% CO2/95% O2) before experiments were carried out.
Electronics, programs and data acquisition: The amplifier used was the EPC-9 (HEKA-electronics, Lambrect, Germany) run by a Power Macintosh G3 computer via an ITC-16 interface. Experimental conditions were set with the Pulse-software accompanying the amplifier. Data were low pass filtered and sampled directly to hard-disk at a rate of 3 times the cut-off frequency.
Pipettes and electrodes: Pipettes were pulled from borosilicate glass (Modulohm, Copenhagen, Denmark) using a horizontal electrode puller (Zeitz-Instrumente, Augsburg, Germany). The pipette resistances were 1.7–2.4 MW in the salt solutions used in these experiments. The pipette electrode was a chloridized silver wire, and the reference was a silverchloride pellet electrode (In Vivo Metric, Healdsburg, USA) fixed to the experimental chamber. The electrodes were zeroed with the open pipette in the bath just prior to sealing.
Experimental procedure: Coverslips were transferred to a […] experimental chamber mounted on the stage of an inverted microscope (IMT-2, Olympus) supplied with Nomarski optics. The neurons were continuously superfused with extracellular saline at a rate of 2.5 ml/min. After giga-seal formation (1–5 GW, success-rate≈90%) the whole cell configuration was attained by suction.
The cells were held at a holding voltage of −60 mV and at the start of each experiment the current was continuously measured for at least 30 sec to ensure a stable leak current. AMPA-containing solutions were delivered to the chamber through a custom-made gravity-driven flowpipe, the tip of which was placed approximately 50 μm from the cell. Application was triggered when the tubing connected to the flow pipe was compressed by a valve controlled by the Pulse-software. AMPA (30 μM) was applied for 1 sec every 45 sec. After obtainment of responses of a repeatable amplitude the compound to be tested was included in both the chamber and in the AMPA-containing solution. The compound was present until responses of a new repeatable was obtained.
The sample interval in all experiments was 310 μsec.
All experiments were performed at room temperature (20–25° C.).

[2] = system: AMPA receptors; assay: AMPA evoked single neuron spike activity in rat hippocampus (iontophoretic application of AMPA), in vivo; conditions: 10 mg kg^−1 i.v.
Description: Evaluation of the in vivo effects of positive AMPA modulators (PAMs) on the AMPA evoked spike activity in rat hippocampus. Hippocampal single neuron spike activity is strongly influenced by excitatory input, and iontophoretic application of AMPA induces spike activity in vivo in a dose-dependent manner ([…] et al. 1998). […] PAMs potentate AMPA receptor activation in vitro, and if this mechanism also operates in vivo, the i.v. injection of an PAM should enhance AMPA evoked spike activity. Thus, the aim of this study was to test the in vivo effect of a group of in vitro active PAMs. This have been done by studying their ability to enhances AMPA evoked spike activity after i.v. administration. Experiments were performed on male Wistar rats (M & B, Denmark) weighing 280-380 g, housed in two per cage with free access to food and water. […] Additional anaesthetic was given i.v. if the rat responded to a pinch of the back foot. The trachea was cannulated and the rats were placed in a stereotaxic frame and ventilated by a rodent ventilator (Ugo Basile, Comerio-Varese, Italy). Core body temperature was maintained at 37.5° C. by a DC heating pad. The left and dorsal part of the parietal bone was removed by craniotomy and the dura was withdrawn exposing the pia mater and underlying brain, covered with 0.9% NaCl. AMPA (Sigma, USA) was dissolved at 10 mM in 0.2 M NaCl. NMDA (Sigma, USA) was dissolved at 100 mM in 100 mM NaCl. Both solutions were adjusted to pH 7.5-8.0 with NaOH. COMPOUND 61 was dissolved in 200 mM CH3SO3^- Na^+ at a contration of 10 mM for iontophoretic application ([…]) and in isotonic glucose (278 mM) for i.v. administration. Cyclothiazide, COMPOUND 63, COMPOUND 56, COMPOUND 115 and COMPOUND 114 were all dissolved at in 5% chremophore solution at a concentration of 5 mg ml^-1. Evoked neuronal spike activity was analyzed on-line by a computer, saving single spikes and time of event. Neuronal spike activity (number of action potentials s^-1) was monitored on a pulse rate histogram together with indicators for AMPA, COMPOUND 61 and vehicle application. Extracellular recordings of single hippocampal neuron spikes were made with five-barrel glass microelectrodes (5B120F-6, World Precision Instruments Inc., Sarasota, Fla., USA) with a tip diameter of 10-12 μm. The individual barrels were filled with 5 M NaCl (recording), 400 mM NaCl (current balancing), 10 mM COMPOUND 61 in 200 mM CH3SO3^- Na^+ (pH 4.7), 200 mM CH3SO3^- Na^+ (pH 4.7, Vehicle), and the last barrel was filled with the AMPA. Experiments were performed on hippocampal neurons (A=5.5-6.5 mm, L=1.5-2.0 mm, H=2.0-3.0 mm, according to Paxinos & Watson, 1986). Neuronal spike activity was evoked by iontophoretic application of AMPA for periods of 10 to 15 s with 1.5 min intervals. Single neuron spike activity was amplified 5000 times with a bandwidth of 0.3 and 3 kHz (CyberAmp 320 with a Al 402 x50 smartprobe, Axon Instruments, California, USA). On-line and off-line analyses were performed by the Spike2 program with a 1401 plus interface (Cambridge Electronic Design Limited, England). The computer program also recorded mean arterial blood pressure and monitored and controlled iontophoretic application. AMPA was ejected into hippocampus in regular cycles of 100-105 s. […] Recording of neuronal spike activity was continued for at least 45 min after intravenous injection. The PAM reactivity was tested by microiontophoretic application of COMPOUND 61 (20 nA, FIG.).

[3] = target: ionotropic quisqualate (AMPA) receptors; assay: In vitro inhibition of 3H-AMPA binding; conditions: 5 nM 3H-AMPA, rat cerebral cortex membranes, 30 min at 2° C.; read-out: IC50 (concentration of the test substance which inhibits the specific binding of 3H-AMPA by 50%)
Description: L-glutamate (GLU) is the major excitatory neurotransmitter in the mammalian central nervous system. From electrophysiological- and binding studies, there appear to be at least three subtypes of GLU receptors, tentatively named N-methyl-D-aspartate (NMDA)-, quisqualate- and kainate receptors. GLU receptor subtypes sensitive to quisqualate and kainate as a group are often referred to as non-NMDA receptors. Receptor binding studies using the labelled agonists ^3H-AMPA (α-amino-3-hydroxy-5-methyl-4-isoxazolepropionic acid) (for quisqualate receptors) and ^3H-kainate (for kainate receptors) have shown different antagonist selectivities and regional distribution. AMPA has been known for several years to be a potent and selective agonist at the traditionally named quisqualate receptors. Activation of quisqualate receptors by AMPA is associated with Na^+ influx and K^+ efflux leading to depolarization.
The non-NMDA receptors have recently been reclassified to include the quisqualate activated metabotropic receptor type, linked to the inositol triphosphate and diacylglycerate metabolism. […] Selective activation of the metabotropic type has been claimed for trans-ACPD. Recently, the potent and competitive non-NMDA receptor antagonists CNQX and NBQX have been described, and CNQX have been reported not to block the effect of quisqualate at the metabotropic receptor subtype. ^3H-AMPA is a selective radioligand for labelling the ionotropic quisqualate (AMPA) receptors.
Preparations are performed at 0–4° C. unless otherwise indicated. Cerebral cortex from male Wistar rats (150–200 g) is homogenized for 5–10 sec in 20 ml Tris-HCl (30 mM, pH 7.4) using an Ultra-Turrax homogenizer. The suspension is centrifuged at 27,000×g for 15 min and the pellet is washed three times with buffer (centrifuged at 27,000×g for 10 min). The washed pellet is homogenized in 20 ml of buffer and incubated on a water bath (37° C.) for 30 min to remove endogenous glutamate and then centrifuged for 10 min at 27,000×g. The pellet is then homogenized in buffer and centrifuged at for 10 min at 27,000×g. The final pellet is resuspended in 30 ml buffer and the preparation is frozen and stored at −20° C.
The membrane preparation is thawed and centrifuged at 2° C. for 10 min at 27,000×g for 10 min. The pellet is washed twice with 20 ml 30 mM Tris-HCl containing 2.5 mM CaCl2, pH 7.4 using an Ultra-Turrax homogenizer and centrifuged for 10 min at 27,000×g. The final pellet is resuspended in 30 mM Tris-HCl containing 2.5 mM CaCl2 and 100 mM KSCN, pH 7.4 (100 ml per g of original tissue) and used for binding assays. Aliquots of 0.5 (0.2) ml are added to 25 (20) μl of test solution and 25(20) μl of ^3H-AMPA (5 nM, final concentration), mixed and incubated for 30 min at 2° C. Non-specific binding is determined using L-glutamate (0.6 mM, final concentration). After incubation the 550 μl samples are added 5 ml of ice-cold buffer and poured directly onto Whatman GF/C glass fibre filters under suction and immediately washed with 5 ml of ice-cold buffer. The 240 μl samples are filtered over glass fibre filter using a Skatron cell harvrester. The filters are washed with 3 ml ice-cold buffer. The amount of radioactivity on the filters is determined by conventional liquid scintillation counting. Specific binding is total binding minus non-specific binding.
The test value will be given as the IC50 (the concentration (μM) of the test substance which inhibits the specific binding of ^3H-AMPA by 50%)

Compound: O=S1(=O)NC(C2CCCCC2)Nc2ccc(S(=O)(=O)N3CCCCC3)cc21 (centres unmarked) [Compound 56, 3-Cyclohexyl-7-piperidinosulfonyl-1,2,3,4-tetrahydro-1,2,4-benzothiadiazine-1,1-dioxide]
reversibility of the potentiation [1]: reversible
persistence of the effect after wash out ([1]; compound 3 μM): persits for several minutes after wash out
potentiation of the current induced by application of 30 μM AMPA ([1]; compound 3 μM): potentiated
onset of the enhancement after i.v. administration [2]: approximately 10 min
AMPA evoked spike activity ([2]; rat hippocampus): enhancement

Compound: Cc1cc2c(cc1-c1ccccn1)S(=O)(=O)NC(C1CCCCC1)N2 (centres unmarked) [Compound 111, 3-Cyclohexyl-6-methyl-7-(2′-pyridyl)-1,2,3,4-tetrahydro-1,2,4-benzothiadiazine-1,1-dioxide]
reversibility of the potentiation [1]: reversible
potentiation of the current induced by application of 30 μM AMPA ([1]; compound 10 μM): potentiated

Compound: CC(=O)c1ccc2c(c1)S(=O)(=O)NC(C1CCCCC1)N2 (centres unmarked) [Compound 13, 3-Cyclohexyl-7-acetyl-1,2,3,4-tetrahydro-1,2,4-benzothiadiazine-1,1-dioxide]
IC50 [3]: 22 µM

Compound: CCN(CC)S(=O)(=O)c1ccc2c(c1)S(=O)(=O)NC(C1CCCCC1)N2 (centres unmarked) [Compound 48, 3-Cyclohexyl-7-(N,N-diethylamino)sulfonyl-1,2,3,4-tetrahydro-1,2,4-benzothiadiazine-1,1-dioxide]
IC50 [3]: 4.4 µM

Compound: O=S1(=O)NC(C2CC3C=CC2C3)Nc2ccc(S(=O)(=O)N3CCCCC3)cc21 (centres unmarked) [Compound 57, 3-Bicyclo[2.2.1]hept-5′-en-2′-yl-7-piperidinosulfonyl-1,2,3,4-tetrahydro-1,2,4-benzothiadiazine-1,1-dioxide]
IC50 [3]: 26 µM

Compound: Cc1cc2c(cc1S(N)(=O)=O)S(=O)(=O)NC(C1CCCCC1)N2 (centres unmarked) [Compound 113, 3-Cyclohexyl-6-methyl-7-sulfamoyl-1,2,3,4-tetrahydro-1,2,4-benzothiadiazine-1,1-dioxide]
melting point: 231 to 233 °C
IC50 [3]: 13 µM

Now from value to molecule:

IC50 [3]: 3.4 µM
Compound: O=S1(=O)NC(C2CCCCC2)Nc2ccc(S(=O)(=O)N3CC=CCC3)cc21 (centres unmarked) [Compound 58, 3-Cyclohexyl-7-(1′,2′,3′,6′-tetrahydropiperidino)sulfonyl-1,2,3,4-tetrahydro-1,2,4-benzothiadiazine-1,1-dioxide]

IC50 [3]: 6 µM
Compound: CS(=O)(=O)N1CCN(S(=O)(=O)c2ccc3c(c2)S(=O)(=O)NC(C2CCCCC2)N3)CC1 (centres unmarked) [Compound 62, 3-Cyclohexyl-7-(4′-methylsulfonylpiperazino)sulfonyl-1,2,3,4-tetrahydro-1,2,4-benzothiadiazine-1,1-dioxide]
